Square brackets hold non-standard residues; d marks the D form. Cit = NC(=O)NCCC[C@H](N)C(=O)O
Columns and labels:
[1] = tested on: serum from a patient suffering from RA; assay: Dot-blot of peptides and fil-gst before and after PAD, serum from an RA patient; format: binding, human; conditions: serum 1/2000
Method: (§1) These 2 peptides, as well as fil-gst, were citrullinated by the action of PAD, for 30 minutes at 50° C., in the same reaction medium as that indicated in Example 2. The specific conditions for each peptide, and for the fil-gst are the following: • peptide S-47-S (SEQ ID NO:3): 4 mU/μmol arginine • peptide S-35-R (SEQ ID NO:4): 2.7 mU/μmol arginine • fil-gst as indicated in Example 2.
(§2) The reactivity of each peptide and that of fil-gst, before and after action of the enzyme, towards the monoclonal antibody AHF4, and the serum from a patient suffering from RA, is compared by dot-blot.
(§3) The operating conditions are the following: • 0.5 μg by deposition of each antigen (peptides, fil-gst, acido-neutral variants of filaggrin (AVF)) • nitrocellulose treatment 45 minutes at 80° C., before immunodetection • RA serum used at the dilution of 1/2000; monoclonal antibody AHF4 used at a concentration of 0.2 μg/ml

[2] = tested on: anti-filaggrin autoantibodies (AFAs); assay: ELISA of citrullinated and noncitrullinated peptides coated on microtiter plates; format: binding, human
Method: The reactivity of each citrullinated and noncitrullinated peptide was tested respectively in relation to a normal serum, to two sera from RA patients, to anti-filaggrin antibodies (AFAs) purified from a pool of 45 sera from RA patients and to anti-filaggrin antibodies purified from 12 sera from RA patients.
The wells of NUNC MAXISORP microtiter plates were respectively coated with the aid of the noncitrullinated and citrullinated peptides E-12-D (SEQ ID NO:6) and E-12-H (SEQ ID NO:5), diluted to a concentration of 5 μg/ml in a PBS buffer (pH: 7.4) and incubated overnight at 4° C. (final volume: […]). The wells were saturated for 30 minutes at 37° C. in PBS-Tween 20, 0.05%, 2.5% gelatin, 200 μl/well. The negative control serum (normal serum) was diluted 1/120. The antifilaggrin antibodies were diluted in PBS-Tween 20, 0.05%-0.5% gelatin (PBS TG) such that the final anti-filaggrin autoantibody concentrations are those indicated in the accompanying Table I. The negative control serum, the RA sera and the anti-filaggrin antibodies were added (final volume: 100 μl/well) and incubated for 1 hour at 37° C. and overnight at 4° C. Peroxidase-labeled goat antibodies anti-gamma heavy chains of the human immunoglobulins (marketed by the company SOUTHERN BIOTECHNOLOGIES) were added to each well (dilution in PBSTG: 1/2000, final volume: 100 μl/well) and incubated for 1 hour at 37° C.
The results presented in the accompanying Table I are given as a ratio of OD at 492 nm: citrullinated peptide signal/noncitrullinated peptide signal.

[3] = tested on: monoclonal antibody AHF4; assay: Dot-blot of peptides and fil-gst before and after PAD, monoclonal antibody AHF4; format: binding; conditions: 0.5 μg antigen per deposit, AHF4 0.2 μg/ml
Method: as §1, §2, §3

[4] = tested on: anti-filaggrin monoclonal antibody AHF2; assay: Immunoblot of fil-gst deiminated in vitro by PAD, revealed with monoclonal antibody AHF2; format: binding; conditions: AHF2 0.2 μg/ml
Method: (§4) The mixture of the 9 fragments is subjected to deimination in vitro by peptidylarginine deiminase.
(§5) A rabbit muscle peptidylarginine deiminase preparation (681 U/ml) marketed by TAKARA BIOMED EUROPE is used according to the protocol recommended by the manufacturer.
(§6) The operating conditions are the following: • reaction medium: 0.1 M Tris-HCl, 10 mM CaCl2, 5 mM DTT, pH 7.4; • enzyme/substrate ratio: 140 mU/μmol of filaggrin containing 10% arginine or 4 mU/μmol of arginine; • incubation: between 0 and 60 min at 50° C.; • termination of the reaction: heating 3 min in LAEMMLI buffer.
(§7) 1 μl of each sample is deposited on an electrophoresis gel (PHAST®-SDS gel 12.5% PHARMACIA), and the electrophoresis is carried out with the PHAST-SYSTEM® apparatus (PHARMACIA), under the conditions recommended by the manufacturer. […] Dermatol. 105, 432, (1995)] at the concentration of 0.2 μg/ml (FIG. 3b).
(§8) The results are illustrated by FIG. 3 • Lane 1: BSA (1 hour, 50° C.) • Lane 2: BSA+PAD (1 hour, 50° C.) • Lane 3: fil-gst (1 hour, 50° C.) • Lane 4: fil-gst+PAD (15 minutes, 50° C.) • Lane 5: fil-gst+PAD (15 minutes, 50° C.) • Lane 6: fil-gst+PAD (30 minutes, 50° C.) • Lane 7: fil-gst+PAD (1 hour, 50° C.) • Lane 8: fil-gst+PAD+inhibitor (1 hour, 50° C.)

[5] = tested on: AFAs present in sera from patients suffering from RA; assay: Immunoblot of fil-gst deiminated in vitro by PAD, revealed with a pool of 5 RA sera; format: binding, human; conditions: for recognition by the sera from patients suffering from RA: pool of 5 RA sera 1/2000
Method: as §4, §5, §6, §7
as §8, with “[…])” for “50° C.) • Lane 4: fil-gst+PAD (15 minutes, 50° C.)”

[6] = Control serum (normal serum) diluted 1/120
[7] = Pool of AFAs (purified from 45 RA sera), 5 μg/ml
[8] = Pool of AFAs (purified from 45 RA sera), 10 μg/ml
[9] = Pool of AFAs (purified from 45 RA sera), 20 μg/ml
[10] = after citrullination (PAD 30 minutes at 50° C.), 0.5 μg antigen per deposit
[11] = not citrullinated, 0.5 μg antigen per deposit
[12] = citrullinated (PAD 30 minutes at 50° C.)

| Molecule | ratio of OD at 492 nm: citrullinated peptide signal/noncitrullinated peptide signal [2, 6] | ratio of OD at 492 nm: citrullinated peptide signal/noncitrullinated peptide signal [2, 7] | ratio of OD at 492 nm: citrullinated peptide signal/noncitrullinated peptide signal [2, 8] | ratio of OD at 492 nm: citrullinated peptide signal/noncitrullinated peptide signal [2, 9] | ratio of OD at 492 nm: citrullinated peptide signal/noncitrullinated peptide signal ([2]; RA1 serum, AFAs 10 μg/ml) | ratio of OD at 492 nm: citrullinated peptide signal/noncitrullinated peptide signal ([2]; RA1 serum, AFAs 20 μg/ml) | ratio of OD at 492 nm: citrullinated peptide signal/noncitrullinated peptide signal ([2]; RA2 serum, AFAs 5 μg/ml) | ratio of OD at 492 nm: citrullinated peptide signal/noncitrullinated peptide signal ([2]; RA2 serum, AFAs 10 μg/ml) | ratio of OD at 492 nm: citrullinated peptide signal/noncitrullinated peptide signal ([2]; RA2 serum, AFAs 20 μg/ml) | recognition by the serum from the patient suffering from RA [1, 10] | recognition by the serum from the patient suffering from RA [1, 11] | recognition by AHF4 [3, 12] | recognition by AHF4 ([3]; not citrullinated) | further results |
| --- | --- | --- | --- | --- | --- | --- | --- | --- | --- | --- | --- | --- | --- | --- |
| AVFs: acido-neutral variants of human epidermal filaggrin [reference compound] |  |  |  |  |  |  |  |  |  |  |  |  |  | recognition by the serum from the patient suffering from RA ([1]; natural antigen as such, 0.5 μg per deposit): recognizes |
| NH2-EQSADSSRHSGSGH-COOH (H-EQSADSS[Cit]HSGSGH-OH) [Peptide E-12-H] | 1 | 2.45 | 2.42 | 1.82 | 1.32 | 1.20 | 10.44 | 11.51 | 8.38 |  |  |  |  |  |
| NH2-ESSRDGSRHPRSHD-COOH (H-ESSRDGSRHPRSHD-OH; not fully specified; printed as NH2-ESSRDGSRHPRSHD-COOH) [Peptide E-12-D] | 1.076 | 1.77 | 1.63 | 1.48 | 1.42 | 1.85 | 2.42 | 3.77 | 5.57 |  |  |  |  |  |
| NH2-SQDRDSQAQSEDSERRSASASRNHRGSAQEQSRDGSR-COOH (H-SQDRDSQAQSEDSERRSASASRNHRGSAQEQSRDGSR-OH; also: citrullinated, positions not given here; listed as Homo sapiens) [Peptide S-35-R, peptide of 37 amino acids, amino acids 155 to 191 of a human filaggrin unit, 7 arginine residues; tested before and after PAD] |  |  |  |  |  |  |  |  |  | not recognized | not recognized | does not recognize | does not recognize |  |
| NH2-STGHSGSQHSHTTTQGRSDASRGSSGSRSTSRETRDQEQSGDGSRHSGS-COOH (H-STGHSGSQHSHTTTQGRSDASRGSSGSRSTSRETRDQEQSGDGSRHSGS-OH; also: citrullinated, positions not given here; listed as Homo sapiens) [Peptide S-47-S, peptide of 49 amino acids, amino acids 71 to 119 of a human filaggrin unit, 6 arginine residues; tested before and after PAD] |  |  |  |  |  |  |  |  |  | recognized |  | recognizes | recognizes |  |
| fil-gst: recombinant human filaggrin unit fused with glutathione S-transferase (GST), expressed in E. coli (protein, left off: a dimerising Fc or GST, recombinant human filaggrin unit fused with glutathione S-transferase (GST), expressed in E. coli) QSESAHGRTGTSTGGRQGSHHKQARDSSRHSTSQEGQDTIHGHPGSSSGGRQGSHYEQLVDRSGHSGSHHSHTTSQGRSDASHGHSGSRSASRQTRNDEQSGDGSRHSGSRHHEASSRADSSGHSQVGQGQSEGPRTSRNWGSSFSQDSDSQGHSEDSERWSGSASRNHHGSAQEQLRDGSRHPRSHQEDRAGHGHSADSSRQSGTRHTQTSSGGQAASSHEQARSSAGERHGSHHQQSADSSRHSGIGHGQASSAVRDSGHRGYSGSQASDNEGHSEDSDTQSVSAHGQAGSHQQSHQESARGRSGETSGHSGSFLYQVSTHE |  |  |  |  |  |  |  |  |  |  | does not recognize | recognizes | recognizes | recognition by monoclonal antibody AHF2 ([4]; citrullinated): recognizes all the fragments; recognition by monoclonal antibody AHF2 ([4]; not citrullinated): recognizes all the fragments; reactivity with the pool of RA sera ([5]; PAD reacted for 60 minutes at 50° C. (lane 7), sera 1/2000): increase in reactivity; recognition by the sera from patients suffering from RA ([5]; absence of citrullination reaction (1 h, 50° C. without PAD, lane 3)): not recognized; recognition by the sera from patients suffering from RA ([5]; from 5 minutes of citrullination with PAD at 50° C. (lane 4)): detected |
